Source: patent US20140296479A1, “D-APTIDE AND RETRO-INVERSO APTIDE WITH MAINTAINED TARGET AFFINITY AND IMPROVED STABILITY” (GWANGJU INSTITUTE OF SCIENCE AND TECHNOLOGY, priority 2011, published 2014)
Where a SMILES comes first, the peptide text is derived from it. Where no end group is shown, it is not given here. [ ]: non-standard residue; d: D form.

Key:
[1] = biological target: HSA (Human serum albumin) (Homo sapiens, UniProt P02768); assay: BIAcore X (SPR) affinity for HSA; type: binding; settings: for kon: PBS pH 7.4, read-out: ka
Procedure: (§1) To investigate whether the activity is maintained where Aptamer-Like Peptides specifically binding to HSA (Human serum albumin), i.e., L-AptideHSA are converted into D- and Retro inverso (RI)-form, their affinity to a target was measured. Firstly, 3 peptides, L-AptideHSA ([…], all L-amino acids, SEQ ID NO:42), D-AptideHSA ([…], all D-amino acids, SEQ ID NO:42) and RI-AptideHSA ([…], all D-amino acids), were synthesized by Anigen Inc. (Korea). Their affinity for a target was determined using BIAcore X (Biacore AB, Uppsala, Sweden). HSA of 3000 RU was immobilized on CM5 chip (Biacore). A PBS (pH 7.4) was used as a running buffer, a flow rate was 30 μl/min, and the affinity was determined with BIAevaluation software (Biacore AB, Uppsala, Sweden) after measuring kinetics of various concentrations.

fibronectin EDB = biological target: T1, fibronectin EDB (Homo sapiens, UniProt P02751); assay: BIAcore X (SPR) affinity for fibronectin EDB; type: binding
T1 construct: Biotin-EDB of 2000 RU was immobilized on streptavidin SA chip
Procedure: To investigate whether the activity is maintained where Aptamer-Like Peptides specifically binding to fibronectin EDB, i.e., L-Aptide1EDB are converted into D- and Retro inverso (RI)-form, their affinity to a target was measured. Firstly, 3 peptides, L-Aptide1EDB ([…], all L-amino acids, SEQ ID NO:21), D-Aptide1EDB ([…], all D-amino acids, SEQ ID NO:21) and RI-Aptide1EDB ([…], all D-amino acids), were synthesized by Anigen Inc. (Korea). Their affinity for a target was determined using BIAcore X (Biacore AB, Uppsala, Sweden). Biotin-EDB of 2000 RU was immobilized on streptavidin SA chip (Biacore). A PBS (pH 7.4) was used as a running buffer, a flow rate was 30 μl/min, and the affinity was determined with BIAevaluation software (Biacore AB, Uppsala, Sweden) after measuring kinetics of various concentrations.

VEGF121 [2] = biological target: T2, VEGF121 (Homo sapiens, UniProt P15692); assay: BIAcore X (SPR) affinity for VEGF; type: binding
T2 sequence (P15692 27-147 isoform P15692-9): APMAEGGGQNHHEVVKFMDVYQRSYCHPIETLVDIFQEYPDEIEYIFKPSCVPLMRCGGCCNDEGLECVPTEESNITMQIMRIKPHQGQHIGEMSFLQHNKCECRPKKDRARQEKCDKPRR
Procedure: as §1, with “VEGF (Vascular endothelial growth factor),” for “HSA (Human serum albumin),”, “L-Aptide1VEGF” for “L-AptideHSA”, “NO:23), D-Aptide1VEGF” for “NO:42), D-AptideHSA”, “NO:23)” for “NO:42)”, “RI-Aptide1VEGF” for “RI-AptideHSA”, “VEGF121” for “HSA”

VEGF121 [3] = biological target: T3, VEGF121 (UniProt P15692-9 27-147); assay: SPR, BIAcore X; VEGF121 on CM5 chip, peptide as analyte
T3 construct: VEGF121, 3000 RU, immobilised on a CM5 chip; also called Vascular endothelial growth factor
T3 sequence (looked up): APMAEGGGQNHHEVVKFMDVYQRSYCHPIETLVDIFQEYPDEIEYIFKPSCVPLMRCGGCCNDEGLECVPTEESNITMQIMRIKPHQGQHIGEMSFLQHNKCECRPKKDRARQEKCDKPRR
Procedure: To investigate whether the activity is maintained where Aptamer-Like Peptides specifically binding to VEGF (Vascular endothelial growth factor), i.e., L-Aptide1VEGF are converted into D- and Retro inverso (RI)-form, their affinity to a target was measured. Firstly, 3 peptides, L-Aptide1VEGF ([…], all L-amino acids, SEQ ID NO:23), D-Aptide1VEGF ([…], all D-amino acids, SEQ ID NO:23) and RI-Aptide1VEGF ([…], all D-amino acids), were synthesized by Anigen Inc. (Korea). Their affinity for a target was determined using BIAcore X (Biacore AB, Uppsala, Sweden). VEGF₁₂₁ of 3000 RU was immobilized on CM5 chip (Biacore).

[4] = biological target: T4, HSA (Human serum albumin) (human, UniProt P02768 25-609); assay: SPR, BIAcore X; HSA on CM5 chip, peptide as analyte
T4 construct: HSA, 3000 RU, immobilised on a CM5 chip; also called HAS
Procedure: as §1, with “(Biacore).” for “(Biacore). A PBS (pH 7.4) was used as a running buffer, a flow rate was 30 μl/min, and the affinity was determined with BIAevaluation software (Biacore AB, Uppsala, Sweden) after measuring kinetics of various concentrations.”

[5] = biotin-EDB on SA chip, PBS pH 7.4
[6] = VEGF121 on CM5 chip, PBS pH 7.4

T4 sequence (P02768 25-609 limits assumed): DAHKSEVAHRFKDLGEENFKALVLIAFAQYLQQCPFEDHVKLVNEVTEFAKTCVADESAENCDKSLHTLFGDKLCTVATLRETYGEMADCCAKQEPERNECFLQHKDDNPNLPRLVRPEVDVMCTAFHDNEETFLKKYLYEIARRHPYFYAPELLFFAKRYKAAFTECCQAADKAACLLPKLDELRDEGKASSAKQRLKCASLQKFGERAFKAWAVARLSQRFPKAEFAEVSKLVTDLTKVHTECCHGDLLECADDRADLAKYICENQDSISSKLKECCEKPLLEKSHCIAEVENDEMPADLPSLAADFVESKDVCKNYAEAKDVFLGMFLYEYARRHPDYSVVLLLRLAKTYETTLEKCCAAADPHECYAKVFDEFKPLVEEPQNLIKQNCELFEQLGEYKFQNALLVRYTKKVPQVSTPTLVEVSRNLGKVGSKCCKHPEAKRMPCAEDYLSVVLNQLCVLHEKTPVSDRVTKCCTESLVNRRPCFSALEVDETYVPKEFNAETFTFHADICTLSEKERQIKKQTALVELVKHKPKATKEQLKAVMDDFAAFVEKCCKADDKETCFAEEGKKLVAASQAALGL

CC[C@H](C)[C@H](NC(=O)CNC(=O)[C@H](CCCCN)NC(=O)[C@H](Cc1c[nH]c2ccccc12)NC(=O)[C@@H](NC(=O)[C@H](Cc1c[nH]c2ccccc12)NC(=O)[C@H](CCCCN)NC(=O)CNC(=O)[C@H](CC(N)=O)NC(=O)[C@H](CCC(=O)O)NC(=O)[C@H](Cc1c[nH]c2ccccc12)NC(=O)[C@@H](NC(=O)[C@H](Cc1c[nH]c2ccccc12)NC(=O)[C@H](CO)NC(=O)CNC(=O)[C@H](Cc1ccccc1)NC(=O)[C@H](CC(N)=O)NC(=O)[C@H](Cc1ccccc1)NC(=O)[C@H](Cc1c[nH]cn1)NC(=O)[C@H](C)NC(=O)[C@@H](N)Cc1c[nH]cn1)[C@@H](C)O)[C@@H](C)O)C(=O)N[C@@H](Cc1c[nH]c2ccccc12)C(=O)N[C@@H](CC(C)C)C(=O)N1CCC[C@H]1C(=O)N[C@@H](C)C(=O)N[C@@H](CCCNC(=N)N)C(=O)O [L-AptideHSA] (H-HAHFNFGSWTWENGKWTWKGIWLPAR-OH; N-terminus and C-terminus assumed)
kd ([1]; HSA on CM5 chip, PBS pH 7.4): 0.013 s⁻¹ | kon ([1]; HSA on CM5 chip): 95000 M⁻¹ s⁻¹

CC[C@@H](C)[C@@H](NC(=O)[C@@H](CCCNC(=N)N)NC(=O)[C@@H](CC(C)C)NC(=O)[C@@H](CCC(=O)O)NC(=O)[C@H](N)CCC(N)=O)C(=O)N[C@@H](C(=O)NCC(=O)N[C@H](CCCCN)C(=O)N[C@H](Cc1c[nH]c2ccccc12)C(=O)N[C@@H](C(=O)N[C@H](Cc1c[nH]c2ccccc12)C(=O)N[C@H](CCCCN)C(=O)NCC(=O)N[C@H](CC(N)=O)C(=O)N[C@H](CCC(=O)O)C(=O)N[C@H](Cc1c[nH]c2ccccc12)C(=O)N[C@@H](C(=O)N[C@H](Cc1c[nH]c2ccccc12)C(=O)N[C@H](CO)C(=O)NCC(=O)N[C@@H](C(=O)N[C@H](C)C(=O)N[C@H](CO)C(=O)N[C@H](CO)C(=O)N[C@H](CS)C(=O)N[C@H](Cc1c[nH]cn1)C(=O)O)C(C)C)[C@H](C)O)[C@H](C)O)[C@H](C)CC [RI-Aptide1EDB] (H-[dQ][dE][dL][dR][dI][dI]G[dK][dW][dT][dW][dK]G[dN][dE][dW][dT][dW][dS]G[dV][dA][dS][dS][dC][dH]-OH; N-terminus and C-terminus assumed)
Kd (fibronectin EDB; [5]): 58 nM | koff (dissociation rate constant) (fibronectin EDB; [5]): 0.0011 s⁻¹ | kon (fibronectin EDB; biotin-EDB on SA chip, PBS pH 7.4, read-out: ka): 19000 M⁻¹ s⁻¹ | binding to target, in words (fibronectin EDB; compared with L-Aptide): affinity similar to L-Aptide

CC[C@@H](C)[C@@H](NC(=O)[C@@H](Cc1c[nH]c2ccccc12)NC(=O)[C@@H](CC(C)C)NC(=O)[C@H]1CCCN1C(=O)[C@@H](C)NC(=O)[C@H](N)CCCNC(=N)N)C(=O)NCC(=O)N[C@H](CCCCN)C(=O)N[C@H](Cc1c[nH]c2ccccc12)C(=O)N[C@@H](C(=O)N[C@H](Cc1c[nH]c2ccccc12)C(=O)N[C@H](CCCCN)C(=O)NCC(=O)N[C@H](CC(N)=O)C(=O)N[C@H](CCC(=O)O)C(=O)N[C@H](Cc1c[nH]c2ccccc12)C(=O)N[C@@H](C(=O)N[C@H](Cc1c[nH]c2ccccc12)C(=O)N[C@H](CO)C(=O)NCC(=O)N[C@H](Cc1ccccc1)C(=O)N[C@H](CC(N)=O)C(=O)N[C@H](Cc1ccccc1)C(=O)N[C@H](Cc1c[nH]cn1)C(=O)N[C@H](C)C(=O)N[C@H](Cc1c[nH]cn1)C(=O)O)[C@H](C)O)[C@H](C)O [RI-AptideHSA] (H-[dR][dA][dP][dL][dW][dI]G[dK][dW][dT][dW][dK]G[dN][dE][dW][dT][dW][dS]G[dF][dN][dF][dH][dA][dH]-OH; N-terminus and C-terminus assumed)
Kd ([1]; HSA on CM5 chip, PBS pH 7.4): 141 nM | kd ([1]; HSA on CM5 chip, PBS pH 7.4): 0.0082 s⁻¹ | kon ([1]; HSA on CM5 chip): 58000 M⁻¹ s⁻¹ | binding to target, in words ([1]; compared with L-Aptide): affinity similar to L-Aptide

CC[C@@H](C)[C@@H](NC(=O)CNC(=O)[C@@H](CCCCN)NC(=O)[C@@H](Cc1c[nH]c2ccccc12)NC(=O)[C@H](NC(=O)[C@@H](Cc1c[nH]c2ccccc12)NC(=O)[C@@H](CCCCN)NC(=O)CNC(=O)[C@@H](CC(N)=O)NC(=O)[C@@H](CCC(=O)O)NC(=O)[C@@H](Cc1c[nH]c2ccccc12)NC(=O)[C@H](NC(=O)[C@@H](Cc1c[nH]c2ccccc12)NC(=O)[C@@H](CO)NC(=O)CNC(=O)[C@@H](Cc1ccccc1)NC(=O)[C@@H](CC(N)=O)NC(=O)[C@@H](Cc1ccccc1)NC(=O)[C@@H](Cc1c[nH]cn1)NC(=O)[C@@H](C)NC(=O)[C@H](N)Cc1c[nH]cn1)[C@H](C)O)[C@H](C)O)C(=O)N[C@H](Cc1c[nH]c2ccccc12)C(=O)N[C@H](CC(C)C)C(=O)N1CCC[C@@H]1C(=O)N[C@H](C)C(=O)N[C@H](CCCNC(=N)N)C(=O)O [D-AptideHSA] (H-[dH][dA][dH][dF][dN][dF]G[dS][dW][dT][dW][dE][dN]G[dK][dW][dT][dW][dK]G[dI][dW][dL][dP][dA][dR]-OH; N-terminus and C-terminus assumed)
kd ([1]; HSA on CM5 chip, PBS pH 7.4): 0.014 s⁻¹ | kon ([1]; HSA on CM5 chip): 97000 M⁻¹ s⁻¹

SQNYKWGKWTWKGNEWTWSGQFFNAH [RI-Aptide1VEGF]
binding to target, in words (VEGF121 [2]): barely bound | Kd (VEGF121 [2]; [6]): Non-binding | ka (VEGF121 [2]; [6]): Non-binding | kd (VEGF121 [2]; [6]): Non-binding

B1: D-Aptide1VEGF (designed binder)
peptide: [dH][dA][dN][dF][dF][dQ]G[dS][dW][dT][dW][dE][dN]G[dK][dW][dT][dW][dK]G[dW][dK][dY][dN][dQ][dS]
koff (VEGF121 [3]): 0.0066 s⁻¹

B2: D-AptideHSA (designed binder)
peptide: [dH][dA][dH][dF][dN][dF]G[dS][dW][dT][dW][dE][dN]G[dK][dW][dT][dW][dK]G[dI][dW][dL][dP][dA][dR]
Kd [4]: 153 nM | koff [4]: 0.014 s⁻¹

B3: RI-AptideHSA (designed binder)
peptide: [dR][dA][dP][dL][dW][dI]G[dK][dW][dT][dW][dK]G[dN][dE][dW][dT][dW][dS]G[dF][dN][dF][dH][dA][dH]
koff [4]: 0.0082 s⁻¹

B4: L-Aptide1VEGF (designed binder)
peptide: HANFFQGSWTWENGKWTWKGWKYNQS
notes: Synthetic 26-mer, all L-amino acids; also called L-AptideVEGF; Aptide1VEGF (L-form)
Kd (VEGF121 [3]): 30 nM | koff (VEGF121 [3]): 0.01 s⁻¹

B5: L-AptideHSA (designed binder)
peptide: HAHFNFGSWTWENGKWTWKGIWLPAR
notes: Synthetic 26-mer, all L-amino acids; also called AptideHSA (L-form)
Kd [4]: 142 nM | koff [4]: 0.013 s⁻¹
